{
  "source": "patent US20060171971A1",
  "about": "“Composition for wet wipes containing a non-irritating skin health benefit ingredient and the process for making” (The Procter & Gamble Company, priority 2005, published 2006)",
  "key": {"[1]": {"test_system": "IL-1α", "test": "Epiderm culture assay with quantification of IL-1α (test sample mixed with IIBM)", "type": "cell-based, human", "details": "16 hours", "text": "(§1) Epiderm Culture Assay With Quantification of IL-1α and Viability\n(§2) In order to evaluate the efficacy of the materials and embodiments of the present invention, a bio-engineered human skin construct is used to model the response of normal human epidermis. The EPIDERM™ skin model (as available from MatTek Corporation, Ashland, Mass.) is a three-dimensional, cornified, air-interfaced culture system. Each EPIDERM™ culture has multiple layers of progressively differentiated keratinocytes, closely resembling human epidermis. EPIDERM™ EPI-200-hydrocortisone-free (hereinafter EPI-200-HCF) cultures are used because these cultures show a strong inflammatory response to irritants. Cultures are incubated in medium that is also hydrocortisone-free (EPI-100-MM-HCF). All work with the cultures is carried out under sterile conditions in a biological safety cabinet.\n(§3) Experiments using the EPI-200-HCF cultures are conducted in six-well plates supplied with the cultures. Each well of the plate is filled with 900 microliters of pre-warmed EPI-100-MM-HCF medium, and then one EPI-200-HCF culture insert (shipped in 24-well format) is carefully transferred into the center of each well such that no air bubbles are trapped underneath the insert. After all of the culture inserts are transferred, the six-well plates are incubated in a 37° C., 5% CO2 tissue culture incubator for at least two hours.\n(§4) During the time the cultures are acclimating, the controls and test samples to be applied to the cultures are prepared. Sufficient material is prepared such that quadruplicate cultures can be dosed with about 100 microliters of the control or test sample. Throughout this section, the word “water” refers to autoclaved, Milli-Q water.\n(§5) For each experiment, three controls are run. The first control is water. The second control is a freshly-made solution of 0.125% Triton-X-100 in water, prepared by diluting the 1% Triton-X-100 stock solution shipped with the EPIDERM™ cultures. The third control is infant irritating bowel movement (hereinafter IIBM). IIBM is prepared as described in the PREPARATION OF INFANT […] method of the TEST METHODS section. At the time of use, the required number of tubes of IIBM are thawed at room temperature and 250 microliter aliquots are dispensed into 1.5 ml polypropylene microfuge tubes using a positive displacement pipettor. To each microfuge tube is then added 10 microliters of a 1 N NaOH solution to raise the pH and ensure activity of the fecal enzymes. For the IIBM control, an additional 250 microliters of water is added, and the tube is mixed thoroughly using a vortex mixer.\n(§6) For preparation of the test samples, a suspension in water of the material to be tested is first prepared. As an example, a 1% suspension of zinc oxide in water is prepared by weighing out 0.1 grams of zinc oxide into a 15 ml polypropylene tube (such as Cat No. 21008-935 from VWR) and adding sufficient water to bring the volume to 10 milliliters. Each suspension is vortexed thoroughly and allowed to sit for at least one hour at room temperature prior to use. To ascertain the irritancy of the test sample by itself, the neat suspension is applied to the EPIDERM™ culture. To ascertain the ability of the test sample to reduce the irritancy of IIBM, 250 microliters of the suspension is added to a microfuge tube already containing a 250 microliter aliquot of IIBM plus 10 microliters of 1 N NaOH (as prepared above). […]"}, "[2]": {"test_system": "EPIDERM™ cultures", "test": "Epiderm culture viability, MTT assay", "type": "cell-based, human", "details": "mixed with IIBM, 16 hours, normalized to water control", "text": "as §1, §2, §3, §4, §5, §6"}, "[3]": {"test": "Lability method (Zincon metallochromic dye colour change)", "type": "physicochemical", "details": "30 mg/10 ml water, pH 7-9, Zincon dye", "text": "Particulate zinc materials differ with respect to how strongly the zinc ion (Zn^2+) is held by the counterion or counterions. […] To determine which particulate zinc materials provide labile Zn^2+, a test is developed using a metallochromic dye that changes color upon coordinating Zn 2+. The response is a binary visual assessment of whether or not the color changes, indicating zinc-binding.\nThe method is based on the commercial metallochromic dye Zincon sodium salt (2-carboxy-2′-hydroxy-5′-sulfoformazyl-benzene sodium salt, such as Cat. No. 201332 available from Sigma-Aldrich, St. Louis, Mo.). Zincon changes from an orange to blue color upon binding zinc ion and provides the basis for detecting available Zn 2+. The specific procedure involves making a stock solution of Zincon in ethanol (50 mg/10 ml ethanol). The particulate zinc material is then added to water (30 mg/10 ml water) and agitated vigorously (pH should be 7-9). Three to four drops of Zincon solution are then added to the particulate zinc material in water, agitated, and a visual assessment of color change made."}},
  "note": "Values joined by “and” are separate entries in the source; they are usually repeats but may differ in a detail not shown here. Equal values may be shown once.",
  "data": [
    {"molecule": "[O]=[Zn]", "note": "[Zinc Oxide, zinc oxide]", "values": [
      {"measurement": "Mean % IL-1α Reduction", "setting": "[1]; zinc oxide 31 mM (0.25% w/w)", "value": 68, "unit": "%"},
      {"measurement": "Mean % IL-1α Reduction", "setting": "[1]; zinc oxide 63 mM (0.5% w/w)", "value": 76, "unit": "%"},
      {"measurement": "Mean % IL-1α Reduction", "setting": "[1]; zinc oxide 125 mM (1.0% w/w)", "value": 90, "unit": "%"},
      {"measurement": "Normalized EPIDERM Viability", "setting": "[2]; zinc oxide 31 mM (0.25% w/w)", "value": 95, "unit": "%"},
      {"measurement": "Normalized EPIDERM Viability", "setting": "[2]; zinc oxide 63 mM (0.5% w/w)", "value": 95, "unit": "%"},
      {"measurement": "Normalized EPIDERM Viability", "setting": "[2]; zinc oxide 125 mM (1.0% w/w)", "value": 96, "unit": "%"},
      {"measurement": "available (labile) Zn2+, binary visual assessment of colour change", "setting": "[3]", "value": "having available Zn^2+"}
    ]},
    {"molecule": "O=S(=O)([O-])[O-].[Zn+2]", "note": "[Zinc Sulfate, zinc sulfate]", "values": [
      {"measurement": "Mean % IL-1α Reduction", "setting": "[1]; zinc sulfate 87 mM (2.5% w/w)", "value": "99% and 98%"},
      {"measurement": "Mean % IL-1α Reduction", "setting": "[1]; zinc sulfate 174 mM (5.0% w/w)", "value": "98% and 99%"},
      {"measurement": "Normalized EPIDERM Viability", "setting": "[2]; zinc sulfate 87 mM (2.5% w/w)", "value": "44% and 28%"},
      {"measurement": "Normalized EPIDERM Viability", "setting": "[2]; zinc sulfate 174 mM (5.0% w/w)", "value": "14% and 11%"}
    ]},
    {"molecule": "O=C([O-])[O-].[Zn+2]", "note": "[zinc carbonate]", "values": [
      {"measurement": "available (labile) Zn2+, binary visual assessment of colour change", "setting": "[3]", "value": "having available Zn^2+"}
    ]},
    {"molecule": "OCC(O)CO.[Zn]", "note": "[zinc monoglycerolate]", "values": [
      {"measurement": "available (labile) Zn2+, binary visual assessment of colour change", "setting": "[3]", "value": "having available Zn^2+"}
    ]},
    {"molecule": "zinc stearate", "values": [
      {"measurement": "available (labile) Zn2+, binary visual assessment of colour change", "setting": "[3]", "value": "having available Zn^2+"}
    ]}
  ]
}
